From patent publication US20070232532A1, “Use of cyclosporin alkene analogues for preventing or treating viral-induced disorders” (priority 2006, published 2007)
≈ marks a conversion by molar mass, not a printed value.

Key:
[1] = system: concanavalin A-stimulated splenocytes; assay: Concanavalin A-stimulated splenocyte assay; format: cell-based, BALB/c mice; details: for IC50: immunosuppressive activity, ConA-stimulated murine splenocytes, [3H]thymidine incorporation, 7 point curves
Method: Concanavalin A-Stimulated Splenocyte Assay
Male BALB/c mice, at 5 to 7 weeks of age, were sacrificed by CO2 inhalation. Spleens were removed and dissociated by pushing through a nylon cell strainer. The splenocytes were washed in RPMI 1640/5% fetal calf serum (FCS) and pelleted at 400×g. Red blood cells were then lysed by resuspending the cell pellet in ACK lysis buffer (150 mM NH4Cl, 1 mM KHCO3, 0.1 mM EDTA, 3 mL per spleen) for 10 min at room temperature. After pelleting at 400×g, the cells were washed by resuspending in RPMI 1640/5% FCS and repelleting. The cell pellet was resuspended in RPMI 1640/5% FCS and again passed through a cell strainer to remove cell aggregates. The cells were then counted and adjusted to 2×10^6 cells/ml in RPMI 1640/10% FCS/50 μM 2-mercaptoethanol. Cell viability was assessed by Trypan blue staining. […] The cells were cultured in a 37° C. CO2 incubator for 2 days and then pulsed with 1 μCi of [^3H]thymidine for 6 hours. Cells were harvested onto filtermats with a TomTec 96 well plate harvester and lysed with H2O. The filtermat and scintillation fluid were sealed in a plastic sleeve. [^3H]thymidine incorporation was measured with a Wallac Trilux plate counter. Initial screens were done at a fixed value of 100 ng/ml test compound. IC50s were calculated from 7 point concentration-response curves using GraphPad software.

[2] = system: hepatitis C virus replication; details: Paeshuyse et al. 2005; cited from earlier work
cyclophilin A = cyclophilin A (Homo sapiens, UniProt P62937); details: cited from earlier work
Chain of cyclophilin A (P62937 whole entry): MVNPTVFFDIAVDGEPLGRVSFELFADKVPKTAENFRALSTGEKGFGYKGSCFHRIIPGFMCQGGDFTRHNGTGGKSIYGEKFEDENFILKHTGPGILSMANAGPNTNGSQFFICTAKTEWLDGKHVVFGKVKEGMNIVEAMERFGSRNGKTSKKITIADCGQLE

[3] = system: immunosuppressive activity; details: Mlynar et al. 1997; cited from earlier work
calcineurin = details: cited from earlier work
HIV-1 = details: literature report; cited from earlier work

Compound	IC50 [1] [ng/mL]	other results
CC[C@@H]1NC(=O)[C@H]([C@H](O)[C@H](C)C/C=C/Br)N(C)C(=O)[C@H](C(C)C)N(C)C(=O)[C@H](CC(C)C)N(C)C(=O)[C@H](CC(C)C)N(C)C(=O)[C@@H](C)NC(=O)[C@H](C)NC(=O)[C@H](CC(C)C)N(C)C(=O)[C@H](C(C)C)NC(=O)[C@H](CC(C)C)N(C)C(=O)CN(C)C1=O (relative stereo) [Example 19, trans-cyclosporin vinyl bromide]	9	–
C=C/C=C/C[C@@H](C)[C@@H](O)[C@H]1C(=O)N[C@@H](CC)C(=O)N(C)[C@H](CO)C(=O)N(C)[C@@H](CC(C)C)C(=O)N[C@@H](C(C)C)C(=O)N(C)[C@@H](CC(C)C)C(=O)N[C@@H](C)C(=O)N[C@H](C)C(=O)N(C)[C@@H](CC(C)C)C(=O)N(C)[C@@H](CC(C)C)C(=O)N(C)[C@@H](C(C)C)C(=O)N1C (relative stereo) [Example 67, trans-cyclosporin diene]	7 (≈ 5.62 nM)	–
C/C=C/C[C@@H](C)[C@@H](O)[C@H]1C(=O)N[C@@H](CC)C(=O)N(C)[C@H](C)C(=O)N(CC)[C@@H](C(C)C)C(=O)N[C@@H](C(C)C)C(=O)N(C)[C@@H](CC(C)C)C(=O)N[C@@H](C)C(=O)N[C@H](C)C(=O)N(C)[C@@H](CC(C)C)C(=O)N(C)[C@@H](CC(C)C)C(=O)N(C)[C@@H](C(C)C)C(=O)N1C [DEBIO-025]	–	inhibition of hepatitis C virus replication [2]: potent and selective inhibition of hepatitis C virus replication; binding affinity for cyclophilin A (cyclophilin A): potent binding affinity
CC[C@@H]1NC(=O)[C@H]([C@H](O)[C@H](C)CC=CC(F)(F)F)N(C)C(=O)[C@H](C(C)C)N(C)C(=O)[C@H](CC(C)C)N(C)C(=O)[C@H](CC(C)C)N(C)C(=O)[C@@H](C)NC(=O)[C@H](C)NC(=O)[C@H](CC(C)C)N(C)C(=O)[C@H](C(C)C)NC(=O)[C@H](CC(C)C)N(C)C(=O)CN(C)C1=O [Example 31, cyclosporin fluoride]	38 (≈ 30.2 nM)	–
CC[C@@H]1NC(=O)[C@H]([C@H](O)[C@H](C)CC=CCF)N(C)C(=O)[C@H](C(C)C)N(C)C(=O)[C@H](CC(C)C)N(C)C(=O)[C@H](CC(C)C)N(C)C(=O)[C@@H](C)NC(=O)[C@H](C)NC(=O)[C@H](CC(C)C)N(C)C(=O)[C@H](C(C)C)NC(=O)[C@H](CC(C)C)N(C)C(=O)CN(C)C1=O [Example 34, cyclosporin allylic fluoride]	12 (≈ 9.83 nM)	–
C/C=C/C[C@@H](C)[C@@H](O)[C@H]1C(=O)N[C@@H](CC)C(=O)N(C)CC(=O)N(C)[C@@H]([C@@H](C)CC)C(=O)N[C@@H](C(C)C)C(=O)N(C)[C@@H](CC(C)C)C(=O)N[C@@H](C)C(=O)N[C@H](C)C(=O)N(C)[C@@H](CC(C)C)C(=O)N(C)[C@@H](CC(C)C)C(=O)N(C)[C@@H](C(C)C)C(=O)N1C [SDZ NIM 811]	–	immunosuppressive activity [3]: completely devoid of immunosuppressive activity; inhibition of calcineurin (calcineurin): does not inhibit calcineurin; anti-HIV-1 activity (HIV-1): potent and selective anti-HIV-1 activity
cyclosporin vinyl iodide [Example 6]	11	–
trans-cyclosporin diene-d2 [Example 69]	4	–
trans-deuterated cyclosporin vinyl iodide [Example 9]	7	potency in immunosuppression compared to cyclosporin A ([1]; FIG. 1, ConA-stimulated splenocyte assay): enhanced potency
